# According to patent US20030060485A1, “(+)-norcisapride” (priority 1997, published 2003):
# Read-outs that look alike come from different tables or passages of the source.
# Columns and labels:
# 5-HT3 receptor = molecular target: T1, 5-HT3 receptor (Cavia porcellus, UniProt O70212); assay: 5-hydroxykynuramine antagonism on the guinea-pig ileum; assay type: cell-based, Guinea pigs; details: guinea-pig ileum segments; 5-OH-K 3.10^-6 M; read-out: IC50 reducing the 5-OH-K induced effect by 50%
# T1 construct: from tissue; host or cells: guinea-pig ileum segments in organ bath
# T1 sequence (O70212 24-490 limits assumed): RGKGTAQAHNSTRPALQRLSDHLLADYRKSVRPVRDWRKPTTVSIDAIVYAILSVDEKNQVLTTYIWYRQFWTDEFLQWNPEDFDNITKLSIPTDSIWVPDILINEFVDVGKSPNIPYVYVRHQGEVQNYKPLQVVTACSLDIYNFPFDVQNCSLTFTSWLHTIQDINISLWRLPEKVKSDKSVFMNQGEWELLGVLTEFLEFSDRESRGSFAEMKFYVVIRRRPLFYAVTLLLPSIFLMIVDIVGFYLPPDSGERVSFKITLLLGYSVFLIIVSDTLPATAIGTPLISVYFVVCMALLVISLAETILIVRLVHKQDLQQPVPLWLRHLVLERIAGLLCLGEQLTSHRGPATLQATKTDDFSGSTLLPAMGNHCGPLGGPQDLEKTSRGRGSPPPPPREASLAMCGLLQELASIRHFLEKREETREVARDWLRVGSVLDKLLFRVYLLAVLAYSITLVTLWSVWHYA
# Protocol: Since 5-OH—K (5-hydroxykynuramine) is a specific agonist at the 5-HT3 receptor, this test evaluates the potential 5-HT3 antagonistic effects.
# Guinea pigs of both sexes, body weight±450 g, were killed by decapitation. Non-terminal, (distal 10 cm discarded), intact ileum segments, strips were cleansed, 4.5 cm long, were vertically suspended with a preload of 0.75 g in an 100 ml bath for isotonic recording; [(Displacement Transducer Control Unit; Janssen Scientific Instrument Division), HP7 DGDT-1000 (Hewlett-Packard CY)]. The organ bath was filled with a Tyrode solution, (37.5° C.), gassed with a mixture of 95% O2 and 5% CO2. After a stabilisation period of 20 minutes, methacholine (3.10^−6 M, 30 seconds contacttime) was added to the bathfluid in order to evaluate the potential maximal contraction, whereafter the bathfluid was refreshed, Subsequently, the serotonin agonist 5-OH-K (30 seconds contact time) was added (final concentration 3.10^−6 M) at intervals of 10 minutes, the bath fluid being refreshed 30 seconds after each addition. After reaching reproducible contractile effects, a single dose of the test compound was added to the bath fluid followed 5 minutes later by addition of 5-OH—K. After establishing the log concentration-responds curve of the test compound, IC50 values reducing the 5-OH—K induced effect by 50% were calculated by linear regression analysis.
# [1] = test system: guinea-pig ileum longitudinal muscle layer with myenteric plexus; assay: Guinea-pig ileum coaxial stimulation; assay type: cell-based, Dunkin-Hartley guinea-pigs; details: Cavia porcellus; guinea-pig ileum strips, electrical stimulation 0.1 Hz, 1 ms, submaximal; read-out: EC50 (concentration that stimulates the response to electrical stimulation by 50%)
# Excerpt: Dunkin-Hartley guinea-pigs of either sex (weighing between 600-900 g) were killed by decapitation. The ileum was removed and cleansed with warmed and oxygenated Krebs-Henseleit solution. Parts of the ileum (15 cm) were slipped over a glass pipette. The longitudinal muscle layer with myenteric plexus was removed by means of a cotton thread moistened with Krebs solution. Strips with a length of 8 cm were folded and these strips (4 cm) were mounted between two platinum electrodes (8 cm length, 0.5 cm apart). The strips were suspended with a preload of 1.5 g in 100 ml Krebs-Henseleit solution (37.5° C.), gassed with a mixture of 95% O2 and 5% CO2. The preparations were excited with single rectangular stimuli [1 ms; 0.1 Hz; submaximal response (current leading to 80% of maximal response), from a programmable stimulator (Janssen Scientific Instruments Division)]. Contractions were measured isometrically (Statham UC2, Janssen Scientific Instruments amplifier, Kipp BD-9 pen-recorder). During the stabilization period of 30 minutes, the strips were repeatedly stretched, in order to obtain a steady state tension of 1.5 g. Before starting the electrical stimulation, a cumulative concentration response curve of acetylcholine (3.10^−9, 10^−8, 3.10^−8 and 10^−7 M) was given. The bath fluid was replaced with fresh Krebs solution and the strips were allowed to stabilize for another 30 minutes. […]
# [2] = test system: MgSO4-induced intestinal lavage; assay: MgSO4 induced intestinal lavage in dogs; assay type: in vivo, Beagle dogs; details: Canis lupus familiaris, p.o., 1 hour before magnesium sulphate challenge
# Protocol: Beagle dogs (of both sexes and varying in body weight, 16 hours deprived from food) were orally pretreated with (+)-norcisapride or solvent and challenged 1 hour later with an oral administration of magnesium sulphate (MgSO4.7H2O, 64g/l, 0.26M; 200 ml). The onset of MgSO4-induced intestinal lavage was assessed over a period of 4 hours after challenge. Liquid stools within 4 hours occured almost never in control animals treated with distilled water (2.5% false positives; n=200) and were considered to reflect significant acceleration of the MgSO4-induced intestinal lavage. Doses in the active dose range were given to five animals each, tested in separate experimental sessions including solvent-treated control animals. All-or-none criteria, based on the distribution of the results obtained in a large number of solvent-treated animals, were used to calculate ED50-values (effective dose) and 95% confidence limits according to Finney's iterative method (Finney, 1962).
# [3] = test system: α-adrenergic (norepinephrine challenge); assay: Apomorphine, tryptamine, norepinephrine (ATN) test in rats: norepinephrine challenge; assay type: in vivo; details: Rattus norvegicus, subcutaneous pretreatment
# Excerpt: (§1) The absence of central dopamine antagonistic and serotonin antagonistic activity of the subject compounds is evidenced by the experimental data obtained in the combined apomorphine (APO), tryptamine (TRY) and norepinephrine (NOR) test in rats. Said combined apomorphine, tryptamine and norepinephrine test is described in Arch. Int. Pharmacodyn., 227, 238-253 (1977) and provides an empirical evaluation of the relative specificity with which drugs may effect particular neurotransmitter systems centrally (CNS) as well as peripherally. […] Central dopamine antagonism is evaluated by challenging rats, subcutaneously pretreated with different doses of the test compound, with apomorphine which is a dopamine agonist. Next, serotonin antagonism is evaluated by challenging the same rats, subcutaneously pretreated with different doses of the test compound, with tryptamine which is an agonist at serotonin 5HT2-receptors. Both central and peripheral serotonin antagonism can be assessed in this test. Centrally acting serotonin antagonists are potential antipsychotic drugs, in particular when simultaneously displaying dopamine antagonism in the first part of this test. Finally, α-adrenergic antagonistic activity of the test compounds is evaluated by challenging the same rats, subcutaneously pretreated with different doses of the test compound, with norepinephrine which is an a-adrenergic agonist. […]
# [4] = test system: guinea-pig colon ascendens; assay: Guinea-pig colon coaxial stimulation; assay type: cell-based, Guinea-pigs; details: Cavia porcellus; guinea-pig colon ascendens segments; read-out: EC50 (concentration that stimulates the maximal tone effect by 50%)
# Protocol: Guinea-pigs of both sexes (body weight±450 g), were killed by decapitation. The colon ascendens was removed and rinsed, whereafter segments of approximately 3 cm length were prepared. These strips were suspended in an organ bath (100 ml) and connected to an isotonic transducer under a preload of 2 g; [Displacement Transducer Control Unit (Janssen Scientific Instrument Division); HP 7 DGDT 1000 (Hewlett-Packard)]. The organ bath was filled with a DeJalon solution (37.5° C.), gassed with a mixture of 95% O2 and 5% CO2. After a stabilization period of 20 minutes, methacholine 3.10^−6 M was added to the bathfluid in order to evaluate the potential maximal effect of the strip (contact time 30 seconds); thereafter, the bathfluid was refreshed. This was repeated at intervals of 10 minutes until a reproducible answer was obtained after addition of methacholine. Thereafter, the test compound was added for 10 minutes. Afterwards, without refreshing the bathfluid, cisapride 3.10^−7 M was added to evaluate a possible 5HT4 effect. When the contraction, caused by cisapride obtained a stable maximal level, methacholine 3.10^−6 M to evaluate a potential anti-cholinergic effect, was added to the bath fluid until a maximal contraction was obtained. The EC50 (i.e. the concentration that stimulates the maximal tone effect by 50%) of a compound, was calculated using linear regression analysis.
# [5] = test system: serotonin 5HT2-receptors (tryptamine challenge); assay: Apomorphine, tryptamine, norepinephrine (ATN) test in rats: tryptamine challenge; assay type: in vivo; details: subcutaneous pretreatment
# Excerpt: as §1
# [6] = test system: central dopamine antagonism (apomorphine challenge); assay: Apomorphine, tryptamine, norepinephrine (ATN) test in rats: apomorphine challenge; assay type: in vivo; details: Rattus norvegicus, subcutaneous pretreatment, central dopamine antagonistic activity
# Excerpt: as §1
# [7] = following oral administration; cited from earlier work
Structure (SMILES),IC50 (5-HT3 receptor),EC50 [1],"ED50 ([2]; liquid stools within 1 hour after challenge, read-out: ED50, onset of diarrhoea with 1 hour)","ED50 ([2]; liquid stools within 2 hours after challenge, read-out: ED50, onset of diarrhoea with 2 hours)","ED50 ([2]; liquid stools within 3 hours after challenge, read-out: ED50, onset of diarrhoea with 3 hours)","ED50 ([2]; liquid stools within 4 hours after challenge, read-out: ED50, onset of diarrhoea with 4 hours)",ED50 [3],EC50 [4],ED50 TRY convulsions ([5]; central serotonin antagonistic activity),ED50 TRY hyperaemia ([5]; peripheral serotonin antagonistic activity),ED50 [6],unchanged cisapride as share of urinary and fecal recovery [7]
"COc1cc(N)c(Cl)cc1C(=O)N[C@@H]1CCNC[C@@H]1OC (stereo in doubt) [Compound 1, (+)-cis-4-amino-5-chloro-2-methoxy-N-(3-methoxy-4-piperidinyl)benzamide]",93 nM,600 nM,0.15 mg/kg,0.064 mg/kg,0.049 mg/kg,0.032 mg/kg,> 40 mg/kg,1900 nM,>40 mg/kg,4.7 mg/kg,> 40 mg/kg,
"COc1cc(N)c(Cl)cc1C(=O)N[C@H]1CCNC[C@H]1OC (stereo in doubt) [Compound 2, (−)-cis-4-amino-5-chloro-2-methoxy-N-(3-methoxy-4-piperidinyl)benzamide]",450 nM,5000 nM,,,,,,11000 nM,,,,
COc1cc(N)c(Cl)cc1C(=O)NC1CCN(CCCOc2ccc(F)cc2)CC1OC (stereo not drawn) [cisapride],,,,,,,,,,,,less than 10%
